Reference: ChEMBL document CHEMBL1201862, “PubChem BioAssay data set” (2004)
Calls of active or inactive are those of the source.

Columns and labels:
A-375 [1] = assay: A375 melanoma cell viability reduction, dose response, counter-screen for MITF modulator project, cherry-pick samples, set 2 (AID 540335); assay type: functional, cell-based; settings: Homo sapiens
[2] = inhibitors of fibronectin matrix deposition, dose response, AH1F cells, Alexa488-FN fluorescence, cherry-picks (AID 1035475); assay type: functional, cell-based
[3] = growth suppression of PTEN-null colon cells, dose response, cell-based, HCT116 PTEN knockout (AID 1047); assay type: functional;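 note: HCT116 colon tumor cells with PTEN knocked out; cells exposed to compound for 60 hours before readout; potency for loss of cell viability measured by luminescence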
A-375 [4] = assay: MITF: Counter assay: A375 proliferation Measured in Cell-Based System Using Plate Reader - 2084-03_Inhibitor_Dose_DryPowder_Activity. [Related pubchem assays (depositor defined):AID488944]; assay type: functional; settings: Homo sapiens
[5] = HepG2 cell cytotoxicity, dose response, cytotoxicity control for Shn3 inhibitor project, CellTiter-Glo, cherry-picked (AID 624134); assay type: functional, cell-based
[6] = HepG2 cell cytotoxicity, dose response, cytotoxicity control, cherry-picks, set 5 (AID 1053118); assay type: functional, cell-based
[7] = Shn3 3'UTR reporter inhibitors, dose response, cell-based, Clone20 osteoblasts, firefly luciferase, cherry-picked (AID 624132); assay type: functional;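 note: firefly luciferase luminescence from reporter carrying the Shn3 3'UTR in osteoblasts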
[8] = control 3'UTR Renilla luciferase suppression, dose response, counter-screen for Shn3 inhibitor project, cell-based, Clone20-Shn3RL, cherry-picked (AID 624133); assay type: functional
[9] = growth suppression of beta-catenin-knockout colon cells, dose response, cell-based, HCT116, human colon tumor (AID 1045); assay type: functional;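 note: HCT116 colon tumor cells with beta catenin knocked out; cells exposed to compound for 60 hours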
[10] = molecular target: T1, Microphthalmia-associated transcription factor (Homo sapiens, UniProt O75030); assay: TRPM1 promoter luciferase signal decrease, dose response, MITF inhibitor project, cell-based, SK-MEL-5, cherry-picked, set 3 (AID 493073); assay type: functional
T1 sequence (O75030 whole entry): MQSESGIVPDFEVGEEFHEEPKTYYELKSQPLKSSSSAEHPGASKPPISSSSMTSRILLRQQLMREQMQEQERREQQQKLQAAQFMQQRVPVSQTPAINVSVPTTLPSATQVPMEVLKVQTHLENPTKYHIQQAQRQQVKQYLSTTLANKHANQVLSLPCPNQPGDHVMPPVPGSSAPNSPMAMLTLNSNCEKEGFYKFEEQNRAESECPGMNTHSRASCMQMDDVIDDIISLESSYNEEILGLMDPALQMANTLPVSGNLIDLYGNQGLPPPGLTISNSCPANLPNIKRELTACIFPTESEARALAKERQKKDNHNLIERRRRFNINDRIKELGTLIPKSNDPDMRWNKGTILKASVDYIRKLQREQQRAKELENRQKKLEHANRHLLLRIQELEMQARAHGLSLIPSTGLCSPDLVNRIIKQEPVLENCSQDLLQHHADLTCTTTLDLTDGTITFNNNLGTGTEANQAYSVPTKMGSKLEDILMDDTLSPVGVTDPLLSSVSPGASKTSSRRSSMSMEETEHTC

[11] = molecular target: Arf-GAP with SH3 domain, ANK repeat and PH domain-containing protein 1 (Homo sapiens, UniProt Q9ULH1); assay type: functional;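 note: biochemical fluorescence polarization dose–response screen measuring inhibition of ASAP1; ASAP1 GAP domain stimulating GTP hydrolysis by truncated human ARF1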
Chain of Arf-GAP with SH3 domain, ANK repeat and PH domain-containing protein 1 (Q9ULH1 whole entry, the tested form may be a part): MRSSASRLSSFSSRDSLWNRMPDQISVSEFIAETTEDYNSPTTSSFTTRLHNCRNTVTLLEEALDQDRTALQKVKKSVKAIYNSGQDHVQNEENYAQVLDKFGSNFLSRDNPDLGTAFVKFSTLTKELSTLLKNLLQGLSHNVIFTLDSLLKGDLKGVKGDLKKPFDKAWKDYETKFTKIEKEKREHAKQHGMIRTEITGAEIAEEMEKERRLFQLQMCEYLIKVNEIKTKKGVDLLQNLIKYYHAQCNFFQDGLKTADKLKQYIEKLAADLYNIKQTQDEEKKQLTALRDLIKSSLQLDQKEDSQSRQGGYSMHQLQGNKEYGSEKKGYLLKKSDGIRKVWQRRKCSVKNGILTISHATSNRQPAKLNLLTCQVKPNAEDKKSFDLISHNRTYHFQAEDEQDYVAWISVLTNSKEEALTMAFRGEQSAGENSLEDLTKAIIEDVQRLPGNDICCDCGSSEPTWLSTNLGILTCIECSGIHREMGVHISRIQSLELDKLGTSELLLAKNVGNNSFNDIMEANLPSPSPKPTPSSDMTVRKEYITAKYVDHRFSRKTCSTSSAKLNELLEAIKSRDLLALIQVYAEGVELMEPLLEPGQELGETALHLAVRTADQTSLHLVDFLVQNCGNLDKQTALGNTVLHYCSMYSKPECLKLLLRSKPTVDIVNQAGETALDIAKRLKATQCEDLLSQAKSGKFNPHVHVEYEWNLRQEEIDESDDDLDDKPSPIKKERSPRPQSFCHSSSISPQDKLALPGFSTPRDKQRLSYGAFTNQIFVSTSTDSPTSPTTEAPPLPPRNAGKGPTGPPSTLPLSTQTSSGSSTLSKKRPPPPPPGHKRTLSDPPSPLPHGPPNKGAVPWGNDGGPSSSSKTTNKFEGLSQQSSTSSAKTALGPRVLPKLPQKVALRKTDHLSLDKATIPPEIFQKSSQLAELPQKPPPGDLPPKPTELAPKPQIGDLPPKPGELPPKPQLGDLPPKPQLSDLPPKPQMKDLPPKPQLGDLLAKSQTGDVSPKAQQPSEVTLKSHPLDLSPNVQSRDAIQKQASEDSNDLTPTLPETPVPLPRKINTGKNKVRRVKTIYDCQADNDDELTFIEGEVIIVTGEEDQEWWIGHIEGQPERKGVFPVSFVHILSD

Mu-type opioid receptor = Mu-type opioid receptor (Homo sapiens, UniProt P35372); assay type: functional, cell-based;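 note: U2OS cells with beta-arrestin recruitment to OPRM1 by beta-gal complementation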
Chain of Mu-type opioid receptor (P35372 whole entry): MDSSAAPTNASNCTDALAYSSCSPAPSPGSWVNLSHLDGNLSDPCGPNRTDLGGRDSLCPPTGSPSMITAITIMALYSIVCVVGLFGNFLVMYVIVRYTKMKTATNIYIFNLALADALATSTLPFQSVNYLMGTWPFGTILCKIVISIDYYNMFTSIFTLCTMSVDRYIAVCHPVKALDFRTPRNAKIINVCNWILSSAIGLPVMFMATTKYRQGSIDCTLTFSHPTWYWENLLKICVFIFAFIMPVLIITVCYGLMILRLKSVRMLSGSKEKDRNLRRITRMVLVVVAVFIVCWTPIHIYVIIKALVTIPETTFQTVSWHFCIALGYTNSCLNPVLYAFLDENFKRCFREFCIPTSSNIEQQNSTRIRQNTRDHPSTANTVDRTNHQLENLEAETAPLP

[12] = molecular target: 5-hydroxytryptamine receptor 2A (Mus musculus, UniProt P35363); assay type: functional, cell-based;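 note: CHO-K1 cells with tagged receptor and beta-arrestin; agonist potency measured as compound-induced activation of the receptor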
Chain of 5-hydroxytryptamine receptor 2A (P35363 whole entry): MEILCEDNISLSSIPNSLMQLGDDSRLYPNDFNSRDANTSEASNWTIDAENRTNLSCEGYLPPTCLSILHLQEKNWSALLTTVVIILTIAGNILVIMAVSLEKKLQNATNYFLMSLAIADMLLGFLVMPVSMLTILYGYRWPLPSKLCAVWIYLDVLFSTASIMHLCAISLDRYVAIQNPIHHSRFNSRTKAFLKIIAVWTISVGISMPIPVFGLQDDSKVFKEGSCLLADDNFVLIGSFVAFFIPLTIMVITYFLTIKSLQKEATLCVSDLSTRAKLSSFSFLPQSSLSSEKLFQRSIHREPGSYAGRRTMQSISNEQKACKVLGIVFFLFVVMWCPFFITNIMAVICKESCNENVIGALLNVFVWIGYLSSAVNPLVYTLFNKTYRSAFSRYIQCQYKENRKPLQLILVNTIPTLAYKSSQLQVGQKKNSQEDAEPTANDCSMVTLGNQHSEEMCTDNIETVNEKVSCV

[13] = reduction of Shn3 3'UTR firefly luciferase signal, dose response, Schnurri-3 inhibitor project, cell-based, Clone20 osteoblasts, cherry-pick, set 2 (AID 720490); assay type: functional;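 note: actives lower the luminescence signal as inhibitors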
Protein Wnt-3a = Protein Wnt-3a (Mus musculus, UniProt P27467); assay: Wnt3a-driven reporter signaling inhibition, dose response, selectivity assay for Gli-SUFU antagonist project, Wnt-LIGHT cells, luminescence (AID 651570); assay type: functional; settings: read-out: IC50_Mean;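 note: Wnt-LIGHT reporter cells stimulated with conditioned medium from Wnt3a-producing cells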
Chain of Protein Wnt-3a (P27467 whole entry): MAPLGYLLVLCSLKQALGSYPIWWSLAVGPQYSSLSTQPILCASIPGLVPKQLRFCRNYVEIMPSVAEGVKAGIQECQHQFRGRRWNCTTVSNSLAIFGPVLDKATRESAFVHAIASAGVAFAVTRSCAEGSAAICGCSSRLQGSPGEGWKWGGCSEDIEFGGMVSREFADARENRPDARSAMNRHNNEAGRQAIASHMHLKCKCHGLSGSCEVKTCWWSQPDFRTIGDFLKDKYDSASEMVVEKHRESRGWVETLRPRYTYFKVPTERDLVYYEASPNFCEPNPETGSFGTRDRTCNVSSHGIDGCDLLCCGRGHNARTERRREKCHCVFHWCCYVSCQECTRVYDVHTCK

Beta-lactamase [14] = molecular target: T2, Beta-lactamase (Pseudomonas aeruginosa, UniProt Q79MP6); assay: […] counterscreen for selective VIM-2 inhibitors: dose response biochemical high throughput screening assay to identify inhibitors of IMP-1 metallo-beta-lactamase.
T2 sequence (Q79MP6 whole entry): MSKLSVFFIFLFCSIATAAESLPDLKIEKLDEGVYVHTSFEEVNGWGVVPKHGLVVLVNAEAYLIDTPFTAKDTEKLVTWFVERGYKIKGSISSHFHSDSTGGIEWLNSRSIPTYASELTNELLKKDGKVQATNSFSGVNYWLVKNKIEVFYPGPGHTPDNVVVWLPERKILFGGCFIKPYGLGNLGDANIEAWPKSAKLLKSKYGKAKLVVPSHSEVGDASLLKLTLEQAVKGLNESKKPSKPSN

Leucine aminopeptidase = molecular target: T3, Leucine aminopeptidase (Plasmodium falciparum 3D7, UniProt Q8IL11); assay: P. falciparum M17LAP inhibitors, primary screen, biochemical, fluorogenic H-Leu-NHMec substrate, 1536-well (AID 1619); assay type: functional
T3 sequence (Q8IL11 whole entry): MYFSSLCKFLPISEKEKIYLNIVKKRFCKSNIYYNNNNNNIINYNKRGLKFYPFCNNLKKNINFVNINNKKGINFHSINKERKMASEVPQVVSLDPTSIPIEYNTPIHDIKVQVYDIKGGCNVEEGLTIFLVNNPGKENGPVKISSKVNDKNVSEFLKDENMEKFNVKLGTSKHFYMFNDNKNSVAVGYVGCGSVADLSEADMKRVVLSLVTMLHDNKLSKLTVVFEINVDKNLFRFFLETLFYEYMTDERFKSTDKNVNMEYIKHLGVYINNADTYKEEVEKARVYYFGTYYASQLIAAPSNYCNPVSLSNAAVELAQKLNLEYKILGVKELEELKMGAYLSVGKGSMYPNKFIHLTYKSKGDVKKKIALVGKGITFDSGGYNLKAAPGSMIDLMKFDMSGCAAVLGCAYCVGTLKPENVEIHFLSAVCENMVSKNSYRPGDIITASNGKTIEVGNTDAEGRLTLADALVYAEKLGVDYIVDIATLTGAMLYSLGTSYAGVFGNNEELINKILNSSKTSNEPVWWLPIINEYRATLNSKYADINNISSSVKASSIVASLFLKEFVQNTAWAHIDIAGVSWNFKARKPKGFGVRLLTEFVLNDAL

Beta-lactamase [15] = molecular target: Beta-lactamase (Salmonella choleraesuis (strain SC-B67), UniProt Q5J463); assay: Epi-absorbance-based counterscreen for selective VIM-2 inhibitors: dose response biochemical high throughput screening assay to identify inhibitors of TEM-1 serine-beta-lactamase.
Chain of Beta-lactamase (Salmonella choleraesuis (strain SC-B67), UniProt Q5J463) (Q5J463 whole entry): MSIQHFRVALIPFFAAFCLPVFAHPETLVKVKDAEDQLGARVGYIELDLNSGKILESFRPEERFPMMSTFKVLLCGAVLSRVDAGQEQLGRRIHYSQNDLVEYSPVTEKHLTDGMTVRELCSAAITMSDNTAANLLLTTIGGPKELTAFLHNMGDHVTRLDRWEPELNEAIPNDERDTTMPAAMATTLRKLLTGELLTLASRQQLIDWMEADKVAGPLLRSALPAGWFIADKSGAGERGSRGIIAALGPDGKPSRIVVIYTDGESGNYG

[16] = molecular target: T4, Heat shock factor protein 1 (Mus musculus, UniProt P38532); assay: HSF1 potentiators in luciferase reporter cells, confirmation, cell-based, NIH3T3, luminescence, dose retest (AID 435004); assay type: functional;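 note: stress induced by proteasome inhibitor MG132 added 30 min after compound; luciferase reporter driven by HSF1 response element in NIH3T3 cells; actives raise luminescence as potentiators of the MG132 stress response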
T4 sequence (P38532 whole entry): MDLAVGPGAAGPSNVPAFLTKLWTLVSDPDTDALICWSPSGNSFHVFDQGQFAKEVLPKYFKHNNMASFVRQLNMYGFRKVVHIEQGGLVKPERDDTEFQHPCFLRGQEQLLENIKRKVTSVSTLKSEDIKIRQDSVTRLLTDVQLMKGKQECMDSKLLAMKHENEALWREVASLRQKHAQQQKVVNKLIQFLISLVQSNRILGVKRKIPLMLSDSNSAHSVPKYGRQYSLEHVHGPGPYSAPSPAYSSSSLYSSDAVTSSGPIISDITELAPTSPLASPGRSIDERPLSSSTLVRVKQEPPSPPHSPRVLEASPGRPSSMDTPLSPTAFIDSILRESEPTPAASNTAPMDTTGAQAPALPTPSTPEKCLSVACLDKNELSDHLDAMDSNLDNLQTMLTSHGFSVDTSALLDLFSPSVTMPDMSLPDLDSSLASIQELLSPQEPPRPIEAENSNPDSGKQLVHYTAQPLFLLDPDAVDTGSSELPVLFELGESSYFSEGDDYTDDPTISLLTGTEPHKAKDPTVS

Beta-lactamase [17] = molecular target: T2, Beta-lactamase; assay: IMP-1 metallo-beta-lactamase inhibitors, dose response, selectivity assay for VIM-2 inhibitor project, biochemical, epi-absorbance (AID 1920)
fMet-Leu-Phe receptor = fMet-Leu-Phe receptor (Homo sapiens, UniProt P21462); assay: FPR ligands, dose response (AID 519); assay type: functional
Chain of fMet-Leu-Phe receptor (P21462 whole entry): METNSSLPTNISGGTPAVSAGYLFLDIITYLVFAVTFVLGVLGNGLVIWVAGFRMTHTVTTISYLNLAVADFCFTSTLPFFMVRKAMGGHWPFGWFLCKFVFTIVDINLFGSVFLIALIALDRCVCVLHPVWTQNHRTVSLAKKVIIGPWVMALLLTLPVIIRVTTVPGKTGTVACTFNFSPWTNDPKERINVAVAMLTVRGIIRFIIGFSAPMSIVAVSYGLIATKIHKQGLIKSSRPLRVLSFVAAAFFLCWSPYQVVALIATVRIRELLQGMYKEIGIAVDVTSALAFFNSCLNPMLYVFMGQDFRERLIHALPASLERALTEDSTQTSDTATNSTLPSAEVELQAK

[18] = LGR2 antagonists, dose response, cell-based, HEK293, CRE-luciferase reporter, cherry pick, set 2 (AID 743343); assay type: functional;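 note: transfected cells were stimulated with diluted bursicon conditioned medium after compound addition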
[19] = molecular target: T5, Nuclear receptor subfamily 0 group B member 1 (Homo sapiens, UniProt P51843); assay type: functional, cell-based;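 note: HEK293T cells transfected with SF-1 and DAX-1 plus StAR promoter luciferase reporter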
T5 sequence (P51843 whole entry): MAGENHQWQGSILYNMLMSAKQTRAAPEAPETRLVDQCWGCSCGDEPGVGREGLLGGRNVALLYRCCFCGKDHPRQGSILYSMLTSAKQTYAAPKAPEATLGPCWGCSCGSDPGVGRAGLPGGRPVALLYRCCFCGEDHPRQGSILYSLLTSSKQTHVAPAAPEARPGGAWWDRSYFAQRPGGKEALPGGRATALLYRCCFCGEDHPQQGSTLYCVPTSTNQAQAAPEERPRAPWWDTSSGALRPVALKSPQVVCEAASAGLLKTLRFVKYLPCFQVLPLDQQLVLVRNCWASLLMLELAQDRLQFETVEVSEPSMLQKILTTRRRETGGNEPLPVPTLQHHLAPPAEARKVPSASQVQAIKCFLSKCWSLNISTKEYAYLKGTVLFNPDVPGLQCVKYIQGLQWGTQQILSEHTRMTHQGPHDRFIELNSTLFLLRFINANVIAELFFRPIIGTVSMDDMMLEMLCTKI

[20] = MC4R antagonists, dose response, counter-screen for LGR2 antagonist project, cell-based, plate reader, cherry pick (AID 743444); assay type: functional;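 note: transfected HEK 293 cells stimulated with alpha-MSH peptide; potency of inhibitors of the alpha-MSH evoked signal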
[21] = HEK293 cell cytotoxicity, dose response, cytotoxicity control, plate reader, cherry-picked samples (AID 743446); assay type: functional, cell-based
cells = assay type: functional, cell-based

Cn1cc([N+](=O)[O-])c(C(=O)Nc2cc(Oc3ccccc3)cc([N+](=O)[O-])c2)n1
AC50 (A-375 [1]): > 35 µM (active)
AC50 [2]: 12.3 µM (active)
EC50 [3]: 0.389 µM (active)
AC50 (A-375 [4]): > 35 µM (active)
AC50 [5]: 19.8 µM (active)
AC50 [6]: 21.9 µM (active)
AC50 [7]: 5.41 µM (active)
AC50 [8]: 2.82 µM (active)
EC50 [9]: 0.309 µM (active)
AC50 [10]: 12.4 µM (active)

O=C(Cn1cncc1-c1ccc([N+](=O)[O-])cc1)Nc1cccc2ccccc12
IC50 [11]: 28.1 µM (inactive)

O=C(C[n+]1cc(-c2ccccc2)n2c1CCC2)Nc1nc(-c2ccc(F)cc2)cs1
EC50 (Mu-type opioid receptor): 92.5 µM (inactive)
EC50 [12]: 76.1 µM (inactive)

CC(C)Cn1c(N)c(C(=O)COC(=O)C2Cc3ccccc3CN2S(C)(=O)=O)c(=O)n(C)c1=O (centres undefined)
AC50 [13]: 0.897 µM (active)
AC50 [5]: > 70 µM (inactive)
AC50 [7]: 0.72 µM (active)
AC50 [8]: 4.76 µM (active)
IC50 (Protein Wnt-3a): 6.31 µM (active)

CC(C)(C)c1ccc(COc2ccsc2C(=O)O)cc1
IC50 (Beta-lactamase [14]): > 59.6 µM (inactive)
IC50 (Leucine aminopeptidase): 11.5 µM (active)
IC50 (Beta-lactamase [15]): > 59.6 µM (inactive)
EC50 [16]: 137 µM (active)
IC50 (Beta-lactamase [17]): > 59.6 µM (inactive)

COc1ccc(OC)c(NC(=O)C2C3CCC(C3=C(C)C)C2C(=O)O)c1 (centres undefined)
Ki (fMet-Leu-Phe receptor): > 66.7 µM (inactive)

Cc1ccnc(NC(=O)c2cccc(S(=O)(=O)N3CCN(c4ccccc4)CC3)c2)c1
AC50 [18]: 12.4 µM (active)
IC50 [19]: > 67.5 µM (inactive)
AC50 [20]: 14.6 µM (active)
AC50 [21]: > 52 µM (inactive)
IC50 (cells): > 67.5 µM (inactive)
